# Measurements published in patent US10092530B2, “Method for inhibiting melanogenesis and promoting collagen production and wound healing” (TCI Co., Ltd, priority 2015, dated 2018).
# Assays:
# Assay type in all cases: cell-based
# [1] = system: MITF gene expression; experiment: MITF gene expression by RT-PCR in human dermal fibroblasts; conditions: 2X-48 group: 17.5 ng/mL, 48 hours
# Procedure: (§1) Human dermal fibroblasts (CCD-966SK cells, former ATCC CRL-1881), a type of adherent skin cells, were cultured in minimum essential medium supplemented with 10% (v/v) fetal bovine serum (FBS), 0.37% (w/v) sodium bicarbonate, 0.1 mM non-essential amino acid solution (NEAA), 1 mM sodium pyruvate, 0.03% (w/v) […], 100 units/ml penicillin and 100 μg/ml streptomycin at 37° C. under humidified atmosphere (relative humidity of 80%) containing 5% CO2. During the culture, the medium was renewed every two days. When the cultured cells reached confluence and formed a monolayer, which was examined by an inverted microscope, a subculture was carried out.
# Therefore, the inventors of the present application studied the inhibitory effect of the compound of formula (I) on MITF gene expression in EXAMPLE 3. […]
# [2] = system: mouse melanoma cell line B16F10; experiment: Melanin quantification assay in mouse melanoma cell line B16F10; conditions: for decreased melanin content compared with the CTL group: 48 hours, B16F10
# Procedure: Therefore, the inventors of the present application studied the inhibitory effect of the compound of formula (I) on MITF gene expression in EXAMPLE 3. The following five groups were compared in this example: • (1) Control group (CTL group): incubating a culture of human dermal fibroblasts for a predetermined time; • (2) One dose-24 hours group (1X-24 group): adding one dose of the compound of the present invention to a culture of human dermal fibroblasts and then examining the culture after an incubation of 24 hours, wherein the term “one dose” refers to 8.75 ng/mL of the compound of formula (I) in DMSO; • (3) One dose-48 hours group (1X-48 group): adding one dose of the compound of the present invention to a culture of human dermal fibroblasts and then examining the culture after an incubation of 48 hours; • (4) Double dose-24 hours group (2X-24 group): adding a double dose of the compound of the present invention to a culture of human dermal fibroblasts and then examining the culture after an incubation of 24 hours, wherein the term “double dose” refers to 17.5 ng/mL of the compound of formula (I); and • (5) Double dose-48 hours group (2X-48 group): adding a double dose of the compound of the present invention to a culture of human dermal fibroblasts and then examining the culture after an incubation of 48 hours.
# In addition, a melanin quantification assay was performed to examine the change of melanin content in mouse melanoma cell line B16F10 (ATCC CRL-6475) upon addition of the compound of the present invention. The treatment of the cells was the same as described above. […] Thus, it is concluded that the compound at a concentration between 8 ng/ml and 18 ng/ml causes a decrease of at least 20% in melanin formation in mouse melanoma cells.
# [3] = system: human dermal fibroblasts; experiment: Wound repair/closure of an incised wound area in a culture of human dermal fibroblasts; conditions: for percentage of wound repair/closure relative to the CTL group: 18 hours
# Procedure: as §1
# Due to the importance of wound healing, the inventors of the present application studied the promoting effect of the compound of formula (I) on wound healing of skin in EXAMPLE 4. The following four groups were compared in this example: • (1) Control group (CTL group): creating an incised wound area in a culture of human dermal fibroblasts and then incubating and examining the culture for 18 hours; • (2) One dose-18 hours group (1X-18 group): creating an incised wound area in a culture of human dermal fibroblasts and adding one dose of the compound of the present invention to the culture; and then examining changes in the wound area of human dermal fibroblasts after an incubation of 18 hours, wherein the term “one dose” refers to 8.75 ng/mL of the compound of formula (I) in DMSO; • (3) Double dose-18 hours group (2X-18 group): creating an incised wound area in a culture of human dermal fibroblasts and adding one dose of the compound of the present invention to the culture; and then examining changes in the wound area of human dermal fibroblasts after an incubation of 18 hours, wherein the term “double dose” refers to 17.5 ng/mL of the compound of formula (I); and • (4) Fourfold dose-18 hours group (4X-18 group): creating an incised wound area in a culture of human dermal fibroblasts and adding one dose of the compound of the present invention to the culture; and then examining changes in the wound area of human dermal fibroblasts after an incubation of 18 hours, wherein the term “fourfold dose” refers to 35 ng/mL of the compound of formula (I).
# According to FIG. 8, a constant number of fibrocytes (about 1-2×10^5 cells) were produced in each of the CTL, 1X-18, 2X-18, and 4X-18 groups to repair and close the wound at 18 hours after wounding.
# In addition, a percentage of wound repair/closure in the wound area of human dermal fibroblasts was determined for the above four groups by analyzing the surface area change of the wound area in FIG. 8 using the software ImageJ. […]
# [4] = system: MMP-9 gene expression; experiment: MMP-9 gene expression by RT-PCR in human dermal fibroblasts; conditions: 1X-24 group: 8.75 ng/mL, 24 hours
# Procedure: as §1
# Therefore, the inventors of the present application studied the inhibitory effect of the compound of formula (I) on MMP-9 gene expression in EXAMPLE 2. […]
# [5] = system: human dermal fibroblasts; experiment: Collagen secretion assay (Sircol) in human dermal fibroblasts; conditions: for increase in collagen secretion compared with the CTL group: 24 hours
compound,measurement,setting,value
C=C1CC[C@@H](C)C2C[C@@H](O)[C@@H](C(C)C(=O)O)CC12 (stereo partly drawn) [compound of formula (I)],inhibition of MITF gene expression compared with the CTL group,[1],about 50%
same,decreased melanin content compared with the CTL group,[2]; 1X-48 group: 8.75 ng/mL,20%
same,decreased melanin content compared with the CTL group,[2]; 2X-48 group: 17.5 ng/mL,40%
same,decrease in melanin formation,"[2]; concentration between 8 ng/ml and 18 ng/ml, mouse melanoma cells",at least 20%
same,degree of repair/closure in the wound area compared with the CTL group (micrographs),"[3]; 1X-18, 2X-18 and 4X-18 groups (8.75, 17.5, 35 ng/mL), 18 hours after wounding",significantly higher degree of repair/closure
same,percentage of wound repair/closure relative to the CTL group,[3]; 1X-18 group: 8.75 ng/mL,1.21 fold
same,percentage of wound repair/closure relative to the CTL group,[3]; 2X-18 group: 17.5 ng/mL,1.4 fold
same,percentage of wound repair/closure relative to the CTL group,[3]; 4X-18 group: 35 ng/mL,1.5 fold
same,inhibition of MMP-9 gene expression compared with the CTL group,[4],about 80%
same,increase in collagen secretion compared with the CTL group,[5]; 1X-24 group: 8.75 ng/mL,20%
same,increase in collagen secretion compared with the CTL group,[5]; 2X-24 group: 17.5 ng/mL,30%
same,increase in collagen secretion,[5]; concentration between 8 ng/ml and 18 ng/ml,at least 20%
